Data as given in patent publication US6030963A, “16-ene-26,27-bishomo cholecalciferols” (Hoffmann-La Roche Inc., priority 1998, dated 2000).

How the values were obtained:
[1] = test system: HL-60 cells; assay: HL-60 cell differentiation (NBT reduction, oxidative burst potential); format: cell-based; details: Homo sapiens, 72 h, 3 days incubation, NBT reduction at 540 nm, mean of 3 wells, S.E.M. between 5 and 10%, read-out: ED50 (concentration leading to 50% of maximal differentiation achieved with 100-1000 nM calcitriol)
Protocol: HL-60 Cell Differentiation
The induction of differentiation of HL-60 cells was assayed by measuring their oxidative burst potential via the reduction of nitrobluetetrazolium (NBT).
HL-60 cells (30,000 cells in 90 μl of supplemented RPMI medium) were seeded into flat-bottomed microliter wells. Immediately after seeding, 10 μl of test compounds listed below in Table I diluted in supplemented RPMI medium were added to the wells to yield final concentrations of between 10^-11 and 10^-6 M (starting from stock solutions of 10^-2 M in ethanol, stored at -20° C. and protected from light). After 3 days, medium was removed from the wells with a multichannel pipette and replaced with 100 μl of NBT solution (1 mg/ml in phosphate buffered saline with 200 nM phorbol myristate acetate). Following an additional hour incubation at 37° C. the NBT solution was removed and 100 μl of 10% sodium dodecyl sulfate in 0.01 N HCl was added. The amount of the reduced NBT was quantified photometrically at 540 nm using an automated plate reader. The mean of 3 wells was calculated. […] Values were expressed as percent of maximal differentiation achieved with 100-1000 nM calcitriol in the same experiment.

[2] = Calcium tolerance test in mice (weight gain, highest tolerated dose); details: mouse, in vivo, sc, daily subcutaneous, 4 consecutive days, body weight before and at end of 5 day treatment period, read-out: HTD (highest tolerated dose: dose which results in zero weight gain during treatment period)
Text: Calcium Tolerance Test In Mice
Profound changes in calcium homeostasis strongly affect the weight development of mice.
Mice (25-30 g body weight) received daily subcutaneous administrations of the compound for 4 consecutive days. Body weight was registered just before and at the end of a […] treatment period. The "highest tolerated dose" (HTD) is the dose which results in zero weight gain during this treatment period.

Structure (SMILES)	EC50 [1] [nM]	MTD [2] [µg/kg]
C=C1/C(=C\C=C2/CCC[C@]3(C)C([C@H](C)C/C=C/C(O)(CC)CC)=CC[C@@H]23)C[C@@H](O)C[C@@H]1O [1,25-Dihydroxy-16,23E-diene-26,27-bishomo-cholecalciferol]	3.8	2
C=C1/C(=C\C=C2/CCC[C@]3(C)C([C@H](C)C/C=C\C(O)(CC)CC)=CC[C@@H]23)C[C@@H](O)C[C@@H]1O [1,25-Dihydroxy-16,23Z-diene-26,27-bishomo-cholecalciferol]	6.2	2.5
C=C1/C(=C\C=C2/CCC[C@]3(C)C([C@H](C)CC#CC(O)(CC)CC)=CC[C@@H]23)C[C@@H](O)C[C@@H]1O [1,25-Dihydroxy-16-ene-23-yne-26,27-bishomo-cholecalciferol]	2.5	4
